US7361633B2, “Screening method and anti-tumor drug candidate obtained therefrom” (Ardana Bioscience Limited, priority 2002, dated 2008)
“Also recorded” adds a separate entry of the source.

Key:
[1] = system: caspase 3 and procaspase 3; assay: Caspase 3 / procaspase 3 immunoblot of JEG-3 whole cell lysates; assay type: cell-based, human; settings: JEG-3 cells, 100 nM continuously, time course
Method: (§1) All twelve panels depict either phase contrast (1, 4, 7, 10), confocal laser microscope (2, 5, 8, 11) or phase contrast/confocal merged images (3, 6, 9, 12). Panels 1 to 3 depict untreated control JEG-3 cells for cells in panels 4 to 6 which have been treated with GnRH I (100 nM) for 24 h. All cells have been exposed while live to an annexin V recombinant protein conjugated to the FITC fluorophore. The annexin V will bind specifically only to phosphatidlyserine (PS) lipids usually only expressed on the intracellular side of the plasma membrane lipid bilayer. An early sign of apoptosis is the translocation of these PS lipids from the intracellular side of the membrane to the outer aspect of the bilayer. […] The cellular levels of caspase 3 and procaspase 3 were assessed by specific immunoblotting of JEG-3 or BPH-1 whole cell (w-c) lysates from cells stimulated continuously with GnRH I for the times depicted.
(§2) Thus we have shown that upon continuous GnRH ligand stimulation of either JEG-3 or BPH-1 there is a retardation of cell growth, however we were interested as to whether there was any genuine induction of cellular apoptosis recently reported to occur in several tumour cell lines (Soon et al (2002) J. Clin. Endocrinol. Metab. 87, 4580-4586). […] Initially we measured the effects of GnRH stimulation upon the ultrastructural integrity of the cells plasma membrane. […]

[2] = system: caspase 3 and procaspase 3; assay: Caspase 3 / procaspase 3 immunoblot of BPH-1 whole cell lysates; assay type: cell-based, human; settings: BPH-1 cells, continuous stimulation, time course
Method: as §1, §2

[3] = system: PLC-β; assay: Inositol phosphate accumulation in BPH-1 cells; assay type: cell-based, human; settings: for inositol phosphate accumulation: 60 minutes, 10 mM LiCl, doses up to 50 μM
Method: BPH-1 cells were pre-incubated with ^3H-myoinositol (1 μCi/ml) for 48 h prior to ligand stimulation (60 minutes). Ligand stimulated inositol phosphate production was measured in the presence of 10 mM LiCl. […] IP accumulation can be used as a read out/marker for Gαq activation since the activation of PLCβ is PTX-resistant.

[4] = target: T1, marmoset Type II GnRH receptor (Callithrix jacchus, UniProt Q95MG6); assay: Inositol phosphate accumulation in αT4-II cells; assay type: cell-based; settings: GnRH II 10 nM
T1 construct: expressed in transfected cells
T1 sequence (Q95MG6 1-380): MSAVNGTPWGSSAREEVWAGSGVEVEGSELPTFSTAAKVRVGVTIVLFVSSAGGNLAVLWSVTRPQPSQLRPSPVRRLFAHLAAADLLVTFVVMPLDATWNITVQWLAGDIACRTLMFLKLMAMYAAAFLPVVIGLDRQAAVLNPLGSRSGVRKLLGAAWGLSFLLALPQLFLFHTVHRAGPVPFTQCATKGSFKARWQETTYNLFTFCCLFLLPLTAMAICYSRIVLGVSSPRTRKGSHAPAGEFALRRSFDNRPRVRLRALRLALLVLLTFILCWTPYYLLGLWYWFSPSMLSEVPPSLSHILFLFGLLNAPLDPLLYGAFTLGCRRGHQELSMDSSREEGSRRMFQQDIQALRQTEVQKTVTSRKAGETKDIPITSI
Method: The histograms in panels a and b represent inositol phosphate accumulation data from HEK293 cells stably expressing the Type I GnRH receptor only (SCL60). […] In panels c and d, the liberated inositol phosphates generated were measured in the proto-gonadotrope cells (αT4) stably expressing the marmoset Type II GnRH receptor (designated αT4-II).
The ability of the four major agents under study at activating ectopically expressed Type I or Type II GnRHR were tested (FIG. 12). The classical signal transduction cascade activated by GnRHR stimulation is the Gαq-PLC-β cascade. Both Type I and II receptor can stimulate the Gαq-PLC type-G-protein and activate PLC-β which cleaves phosphatidylinositol bisphosphate (PIP2) into inositol trisphosphate (IP3), other lower inositol phosphates (IPn) and diacylglycerol (DAG). The major function of IP3 is to elevate intracellular Ca^2+ while DAG causes the activation of specific PKC (protein kinase C) isoforms.
Panels a and b of FIG. 12 depict the generation of free cytoplasmic ^3H-myo-inositols on the plasma membranes of HEK293 cells expressing the Type I GnRHR and of αT4 gonadotropes expressing the marmoset Type II GnRHR. Prior to agonist stimulation the respective cells were incubated in inositol-free growth media supplemented with 1 μCi/ml ^3H-myoinositol for 48 h. G protein coupled receptor (GPCR)-induced activation of PLC-β results in the cleavage of PIP2 (incorporating tritium ^3H) into free lower inositol phosphates (IPns).

[5] = system: Type I GnRHR; assay: Binding affinity for Type I GnRHR (data not shown)
[6] = target: T2, Type II GnRHR (Callithrix jacchus, UniProt Q95MG6); assay: Binding affinity for Type II GnRHR (data not shown)
T2 sequence (Q95MG6 1-380): T1 sequence (Q95MG6 1-380)

[7] = system: Type II GnRHRs cloned from several species; settings: Ott et al (2002); cited from earlier work

Substance	cellular level of cleaved (active) caspase-3 [1]	cellular level of pro-caspase 3 [1]	cellular levels of pro-caspase 3 and cleaved caspase-3 [2]	inositol phosphate accumulation [3]	effect of pertussis toxin pre-incubation on induced inositol phosphate accumulation ([3]; PTX 200 ng/ml 16 h, GnRH I 50 μM)	agonistic activity: liberated inositol phosphates at marmoset Type II GnRH receptor [4]	agonistic activity: liberated inositol phosphates at marmoset Type II GnRH receptor ([4]; listed as 135-25)	agonistic activity: liberated inositol phosphates at marmoset Type II GnRH receptor ([4]; listed as Ant135-25)	agonistic activity: liberated inositol phosphates at marmoset Type II GnRH receptor ([4]; listed as antagonist 135-25)	binding affinity for Type I GnRHR [5]	binding affinity for Type II GnRHR [6]	agonistic activity: liberated inositol phosphates at marmoset Type II GnRH receptor ([4]; listed as 135-18)	partial agonistic activity upon Type II GnRHRs cloned from several species [7]
GnRH I: Gonadotropin-Releasing Hormone, a decapeptide; the original form of GnRH, re-named GnRH I	enhanced expression of the pro-apoptotic proteases cleaved-caspase 3 and procaspase 3; also recorded: only significantly evident between 48-72 h	enhanced expression of the pro-apoptotic proteases cleaved-caspase 3 and procaspase 3; also recorded: significant elevation in the cellular levels of pro-caspase 3 evident from 24-48 h	enhanced expression of the pro-apoptotic proteases cleaved-caspase 3 and procaspase 3; also recorded: more rapid onset on the generation of cleaved caspase-3	only high doses of GnRH I and Ant 135-25 cause any significant accumulation of inositol phosphates; also recorded: small capacity to induce inositol phosphate accumulation	abrogated by a 16 h pre-incubation of the BPH-1 cells with 200 ng/ml of pertussis toxin								
Ac-D-Nal(2)-D-4-ClPhe-D-Pal-Ser-1-MePal-D-IsopropylLys-Leu-IsopropylLys-Pro-D-AlaNH2 [Ant 135-25]				only high doses of GnRH I and Ant 135-25 cause any significant accumulation of inositol phosphates; also recorded: small capacity to induce inositol phosphate accumulation		do not cause any liberation of free inositol phosphates	no IPn-generating capacity	no partial activity at all; also recorded: fails to show any agonistic activity at the Type II marmoset GnRHR	failed to generate significant free inositol phosphate	high binding affinity	high binding affinity		
Ac-D-Nal(2)-D-4-ClPhe-D-Pal-Ser-Ile-D-IsopropylLys-Leu-IsopropylLys-Pro-D -AlaNH2 [Ant 135-18]						considerable partial agonistic activity; also recorded: dose-dependent agonistic activity						only the Type II receptor was activated by 135-18	high degree of partial agonistic activity
